How the values were obtained:
BT474 cells = assay: Cell viability assay (CellTiter-Glo), BT474; type: cell-based; conditions: Homo sapiens, BT-474, HER2 expressing cells, 72 h
Description: (§1) Cell Viability Assay for Antibody-Polymer-Drug Conjugates.
(§2) PBD compounds and conjugates thereof were evaluated for their antiproliferation properties in tumor cell lines in vitro using CellTiter-Glo® (Promega Corp). Cells were plated in black walled 96-well plate and allowed to adhere overnight at 37° C. in a humidified atmosphere of 5% CO2. BT474, SKBR3, NCI-N87 cells (HER2 expressing cells), JIMT1 cells (HER2 medium expression level cells) and MCF7 cells (HER2 low expressing levels cells) and were plated at a density of 5,000 cells per well. The next day the medium was replaced with 50 μL fresh medium and 50 μL of 2× stocks of PBD compounds or antibody-PBD conjugate were added to appropriate wells, mixed and incubated for 72 h. CellTiter-Glo® reagent was added to the wells at room temperature and the luminescent signal was measured after 10 min using a SpectraMax M5 plate reader (Molecular Devices). Dose response curves were generated using SoftMax Pro software. IC50 values were determined from four-parameter curve fitting.

SKBR3 cells = assay: Cell viability assay (CellTiter-Glo), SKBR3; type: cell-based; conditions: Homo sapiens, SK-BR-3, HER2 expressing cells, 72 h
Description: as §1, §2

NCI-N87 cells = assay: Cell viability assay (CellTiter-Glo), NCI-N87; type: cell-based; conditions: Homo sapiens, HER2 expressing cells, 72 h
Description: as §1, §2

JIMT1 cells = assay: Cell viability assay (CellTiter-Glo), JIMT1; type: cell-based; conditions: Homo sapiens, JIMT-1, HER2 medium expression level cells, 72 h
Description: as §1, §2

MCF7 cells = assay: Cell viability assay (CellTiter-Glo), MCF7; type: cell-based; conditions: Homo sapiens, HER2 low expressing levels cells, 72 h
Description: as §1, §2

[1] = Phase I clinical evaluation; cited from earlier work

SMILES	IC50 (BT474 cells; PBD compounds (Table I))	IC50 (SKBR3 cells; PBD compounds (Table I))	IC50 (NCI-N87 cells; PBD compounds (Table I))	IC50 (JIMT1 cells; PBD compounds (Table I))	IC50 (MCF7 cells; PBD compounds (Table I))	IC50 (BT474 cells; conjugates (Table II))	IC50 (SKBR3 cells; conjugates (Table II))	IC50 (NCI-N87 cells; conjugates (Table II))	IC50 (JIMT1 cells; conjugates (Table II))	IC50 (MCF7 cells; conjugates (Table II))	maximum tolerated dose [1]
COc1cc2c(cc1OCCCC(=O)Nc1cn(C)c(C(=O)Nc3ccc(-c4cc(C(=O)O)n(C)c4)cc3)n1)N=C[C@@H]1CCCN1C2=O [Compound 44, (S,Z)-4-(4-(4-(4-(7-methoxy-5-oxo-2,3,5,11a-tetrahydro-1H-benzo[e]pyrrolo[1,2-a][1,4]diazepin-8-yloxy)butanamido)-1-methyl-1H-imidazole-2-carboxamido)phenyl)-1-methyl-1H-pyrrole-2-carboxylic acid]	1000 nM	53 nM	105 nM	109 nM	560 nM						
C=C1CC2C=Nc3cc(OCCCC(=O)Nc4cn(C)c(C(=O)Nc5ccc(-c6cc(C(=O)n7ccc8cc(N)ccc87)n(C)c6)cc5)n4)c(OC)cc3C(=O)N2C1 (stereo not drawn) [Compound 105, (Z)—N-(4-(5-(5-amino-1H-indole-1-carbonyl)-1-methyl-1H-pyrrol-3-yl)phenyl)-4-(4-(7-methoxy-2-methylene-5-oxo-2,3,5,11a-tetrahydro-1H-benzo[e]pyrrolo[1,2-a][1,4]diazepin-8-yloxy)butanamido)-1-methyl-1H-imidazole-2-carboxamide]						0.09 nM	0.007 nM	0.03 nM	0.04 nM	0.03 nM	
C=C1C[C@H]2C=Nc3cc(OCCCC(=O)Nc4cn(C)c(C(=O)Nc5ccc(-c6nc7cc(OC)ccc7[nH]6)cc5)n4)c(OC)cc3C(=O)N2C1 [Compound 106, (S,Z)—N-(4-(5-methoxy-1H-benzo[d]imidazol-2-yl)phenyl)-4-(4-(7-methoxy-2-methylene-5-oxo-2,3,5,11a-tetrahydro-1H-benzo[e]pyrrolo[1,2-a][1,4]diazepin-8-yloxy)butanamido)-1-methyl-1H-imidazole-2-carboxamide]						0.73 nM	0.13 nM	0.21 nM	0.17 nM	0.84 nM	
C=C1CC2C=Nc3cc(OCCCC(=O)Nc4cn(C)c(C(=O)Nc5ccc(-c6cc(C(=O)n7ccc8cc(OC)ccc87)n(C)c6)cc5)n4)c(OC)cc3C(=O)N2C1 (stereo not drawn) [Compound 107, (Z)—N-(4-(5-(5-methoxy-1H-indole-1-carbonyl)-1-methyl-1H-pyrrol-3-yl)phenyl)-4-(4-(7-methoxy-2-methylene-5-oxo-2,3,5,11a-tetrahydro-1H-benzo[e]pyrrolo[1,2-a][1,4]diazepin-8-yloxy)butanamido)-1-methyl-1H-imidazole-2-carboxamide]						0.16 nM	0.02 nM	0.03 nM	0.03 nM	0.07 nM	
C=C1C[C@H]2C=Nc3cc(OCCCOc4cc5c(cc4OC)C(=O)N4CC(=C)C[C@H]4C=N5)c(OC)cc3C(=O)N2C1 [SJG-136]											45 μg/m^2

From patent publication US10526294B2, “Pyrrolobenzodiazepines and conjugates thereof” (priority 2016, dated 2020)
